Source: ChEMBL document CHEMBL1124178, “Nucleosides of 1,4-thiazin-3-one and derivatives as tetrahedral intermediate analogues of enzymes in pyrimidine nucleoside metabolism” (J Med Chem, 1988)

Tests used:
Format in all cases: functional
CCRF-CEM = experiment: In vitro inhibitory activity against the growth of CCRF-CEM human T lymphoblastic leukemia.; conditions: read-out: ID50 (the source's name)
Homo sapiens = species: Homo sapiens; experiment: In vitro Inhibitory activity against the growth of WIL-2 human B lymphoblastic leukemia.
L1210 = experiment: In vitro Inhibitory activity against the growth of L1210 murine lymphocytic leukemia; conditions: Mus musculus, read-out: ID50 (the source's name)

- IC50 (CCRF-CEM): 35.5 µM
- IC50 (L1210): 3 µM
SMILES: CC1=CSCC(=O)N1
- ID50 (Homo sapiens): 41.7 µM
